From paper PMC6854942, “Simultaneous Determination of Three Bioactive Constituents from Bletilla striata by UPLC-MS/MS and Application of the Technique to Pharmacokinetic Analyses” (Evidence-based Complementary and Alternative Medicine : eCAM, 2019)
“And” between values parts separate entries of the source, which are not always exact repeats. Identical values can stand only once.

Tests used:
[1] = Pharmacokinetic study in rats after intravenous administration of B. striata extract (UPLC-MS/MS of plasma); assay type: in vivo, Sprague-Dawley rats; settings: intravenous administration of B. striata extract 1.64 g/kg, rat plasma, n = 6; for MRT last / MRT inf: Sprague-Dawley; for MRT last: read-out: MRT0–t; for MRT inf: read-out: MRT0–∞
Description: (§1) An ACQUITY™ UPLC system (Waters Corp., Milford, MA, USA) with a conditioned autosampler and the ACQUITY™ UPLC BEH C18 analytical column (50 mm × 2.1 mm, internal diameter, 1.7 μm; Waters Corp., Milford, MA, USA) were used, to which a 6 mm precolumn filter unit was added. Analysis was carried out with an elution gradient of (A) acetonitrile and (B) water (both containing 0.1% formic acid) at a flow rate of 0.35 mL/min as follows: 0–0.5 min (10% A), 0.5–1.0 min (10–30% A), 1.0–2.0 min (30–35% A), 2.0–3.0 min (35–38% A), 3.0–4.0 min (38–90% A), and 4.0–5.0 min (90–10% A). The column and autosampler were maintained at 45°C and 15°C, respectively. The injection volume was 2 μL.
(§2) Mass spectrometric detection was performed using a Waters ACQUITY™ TQD triple quadrupole tandem mass spectrometer (Waters Corp., Manchester, UK) with an ESI interface in the positive ionization mode. The MS conditions were as follows: capillary voltage, 3.0 kV; desolvation gas flow, 650 L/h of nitrogen; and cone gas flow, 50 L/h of nitrogen. The collision gas (Ar) flow for MS/MS was maintained at 0.16 mL/min for collision-induced dissociation (CID). The source and desolvation gas temperatures were 120°C and 350°C, respectively. The multiple reaction monitoring (MRM) mode was used for quantification. All data were acquired using Masslynx™ V 4.1 Software and processed using Quanlyna™ V4.1 (Waters Corp., Millford, MA, USA).
(§3) Ten microliters of the IS solution (puerarin, 10 μg/mL in methanol) and 50 μL of 1% formic acid were added to 100 μL of rat plasma. Proteins were precipitated by addition of 400 μL of methanol, vortexing for 1 min, sonication for 5 min, followed by centrifugation at 13225 ×g for 10 min at 4°C, collecting the supernatant in a centrifuge tube, and drying at 37°C N2. Subsequently, 300 μL of the initial mobile phase was dissolved, sonicated for 5 min, and centrifuged at 5°C and 13225 ×g for 5 min, and the supernatant was used for analysis by UPLC-MS/MS.
(§4) The twelve Sprague-Dawley rats were housed under a controlled temperature regimen (22 ± 1°C) and relative humidity of 50–70%. The animals were maintained on a 12 h light/12 h dark cycle and had free access to food and water. They were fasted for 12 h before each experiment but allowed to drink freely during this time. Before the experiment, the B. striata extracts' intravenous and oral dosing solutions were prepared in physiological saline at concentrations of 1.03 g/mL and 2.78 g/mL, respectively. The 12 rats were randomly divided into two groups with 6 rats in each group. Group 1 underwent oral administration (22.2 g/kg), and group 2 underwent intravenous administration (1.64 g/kg). Blood samples (0.3 mL) were collected from the external right jugular veins of the rats into heparinized tubes at the designated time points (0.033, 0.083, 0.167, 0.33, 0.5, 1, 1.5, 2, 10, 24, 36, and 48 h for group 1 and 0.033, 0.083, 0.167, 0.25, 0.33, 0.5, 0.75, 1, 1.6, and 2 h for group 2). The blood samples were immediately centrifuged at 3000 ×g for 5 min. The plasma was removed and frozen at −20°C until further analysis.
(§5) Data are represented as mean± standard deviation. To determine the pharmacokinetic parameters, the concentration-time data were analyzed by DAS 2.0 software (Mathematical Pharmacology Professional Committee of China, Shanghai, China). Statistical analysis was performed using the statistical software package Statistical Product and Service Solutions (SPSS 11.5, USA). The absolute bioavailability was calculated using the following equation: F (%) = [AUC0 − t (oral) × dose (i.v.)]/[AUC0 − t (i.v.) × dose (oral)]) × 100.

[2] = Stability of each compound in rat plasma (QC samples); assay type: in vitro ADME; settings: n = 5
Description: The stability of each compound in rat plasma was evaluated using mixtures containing low, medium, or high concentrations of the QC sample (n = 5 for each concentration level). The stability of each compound was tested under three conditions: room temperature for 6 h, three freeze (−20°C)-thaw (room temperature) cycles, and storage at 4°C for 12 h.

[3] = Pharmacokinetic study in rats after oral administration of B. striata extract (UPLC-MS/MS of plasma); assay type: in vivo, Sprague-Dawley rats; settings: for bioavailability: rats, AUC0−t oral (22.2 g/kg extract) vs i.v. (1.64 g/kg extract), dose-corrected, read-out: Bioavailability (absolute); for MRT last: read-out: MRT0–t; for MRT inf: read-out: MRT0–∞
Description: as §1, §2, §3, §4, §5

[4] = 3 freeze-thaw cycles (−20°C / room temperature), low QC (spiked 0.029 / 0.022 / 0.015 μg/mL)
[5] = 3 freeze-thaw cycles, high QC (spiked 36.78 / 13.75 / 23.78 μg/mL)
[6] = 3 freeze-thaw cycles, medium QC (spiked 4.09 / 2.75 / 2.64 μg/mL)
[7] = 6 h, room temperature, high QC (spiked 36.78 / 13.75 / 23.78 μg/mL)
[8] = 6 h, room temperature, low QC (spiked 0.029 / 0.022 / 0.015 μg/mL)
[9] = 6 h, room temperature, medium QC (spiked 4.09 / 2.75 / 2.64 μg/mL)
[10] = 12 h, 4°C, high QC (spiked 36.78 / 13.75 / 23.78 μg/mL)
[11] = 12 h, 4°C, low QC (spiked 0.029 / 0.022 / 0.015 μg/mL)
[12] = 12 h, 4°C, medium QC (spiked 4.09 / 2.75 / 2.64 μg/mL)
[13] = Sprague-Dawley, oral administration of B. striata extract 22.2 g/kg, rat plasma, n = 6
[14] = oral administration of B. striata extract 22.2 g/kg, rat plasma, n = 6

SMILES | MRT last [1] | MRT inf [1] | AUC0–t [1] | AUC0–∞ [1] | Accuracy [2, 4] | Calculated concentration [2, 4] | Calculated concentration [2, 5] | Calculated concentration [2, 6] | Calculated concentration [2, 7] | Accuracy [2, 8] | Calculated concentration [2, 8] | Calculated concentration [2, 9] | Accuracy [2, 10] | Calculated concentration [2, 10] | Accuracy [2, 11] | Calculated concentration [2, 11] | Accuracy [2, 12] | Calculated concentration [2, 12] | bioavailability ([3]; Sprague-Dawley, rat, plasma) | Cmax [3, 13] | further results
CC(C)C[C@@](O)(CC(=O)O)C(=O)OCc1ccc(O[C@@H]2O[C@H](CO)[C@@H](O)[C@H](O)[C@H]2O)cc1 [Gymnoside I, gymnoside I] | 0.68 ± 0.07 h | 0.93 ± 0.18 h | 15.47 ± 1.63 h∗μg/mL | 17.52 ± 2.66 h∗μg/mL | 100.3% | 0.022 ± 0.001 µg/mL | 13.92 ± 0.57 µg/mL | 2.74 ± 0.10 µg/mL | 13.69 ± 0.39 µg/mL | 100.2% | 0.022 ± 0.001 µg/mL | 2.77 ± 0.08 µg/mL | 96.1% | 13.22 ± 0.49 µg/mL | 95.4% | 0.021 ± 0.001 µg/mL | 97.5% | 2.68 ± 0.15 µg/mL | 9.8% | 3060 ± 4820 ng/mL | MRT last [3, 13]: 12.4 ± 3.73 h; MRT inf [3, 13]: 16 ± 5.34 h; AUC0–t [3, 14]: 20.56 ± 12.05 h∗μg/mL; AUC0–∞ [3, 14]: 21.81 ± 12.04 h∗μg/mL; T max [3, 14]: 1.44 ± 2.29 h; T max ([3]; oral administration of B. striata extract 22.2 g/kg, rat plasma, n = 6, listed as gymnoside I): 0.16 h
CC(C)C[C@@](O)(CC(=O)OCc1ccc(O[C@@H]2O[C@H](CO)[C@@H](O)[C@H](O)[C@H]2O)cc1)C(=O)OCc1ccc(O[C@@H]2O[C@H](CO)[C@@H](O)[C@H](O)[C@H]2O)cc1 [Militarine, militarine] | 0.36 ± 0.06 h | 0.39 ± 0.07 h | 36.71 ± 5.66 h∗μg/mL | 37.22 ± 5.99 h∗μg/mL | 100.7% | 0.015 ± 0.001 µg/mL | 21.8 ± 0.94 µg/mL | 2.62 ± 0.09 µg/mL | 21.3 ± 0.94 µg/mL | 106.7% | 0.016 ± 0.001 µg/mL | 2.62 ± 0.09 µg/mL | 92.3% | 21.95 ± 1.1 µg/mL | 100.1% | 0.015 ± 0.001 µg/mL | 93.2% | 2.46 ± 0.28 µg/mL | 0.6% | 3300 ± 3600 ng/mL | Accuracy [2, 5]: 91.7%; Accuracy [2, 6]: 99.2%; Accuracy [2, 7]: 89.6%; Accuracy [2, 9]: 99.2%; MRT last [3, 13]: 5.62 ± 2.45 h; MRT inf [3, 13]: 9.31 ± 2.57 h; AUC0–t [3, 14]: 3.10 ± 1.16 h∗μg/mL; AUC0–∞ [3, 14]: 4.26 ± 1.93 h∗μg/mL; T max [3, 14]: 0.16 ± 0.11 h; T max ([3]; oral administration of B. striata extract 22.2 g/kg, rat plasma, n = 6, listed as militarine): 1.44 h
CC(C)C[C@@](O)(CC(=O)O)C(=O)O [α-Isobutylmalic acid] | 0.45 ± 0.08 h | 0.51 ± 0.1 h | 38.7 ± 4.72 h∗μg/mL | 39.62 ± 4.26 h∗μg/mL | 93.1% | 0.027 ± 0.001 µg/mL | 34.17 ± 1.28 µg/mL | 3.83 ± 0.08 µg/mL | 34.95 ± 1.89 µg/mL | 103.4% | 0.03 ± 0.001 µg/mL | 3.77 ± 0.09 µg/mL | 94.4% | 34.71 ± 1.95 µg/mL | 96.6% | 0.028 ± 0.002 µg/mL | 95.8% | 3.92 ± 0.11 µg/mL | 87.5% and 87.4% | 23200 ± 5420 ng/mL | Accuracy [2, 5]: 92.9%; Accuracy [2, 6]: 93.6%; Accuracy [2, 7]: 95.0%; Accuracy [2, 9]: 92.2%; Tmax ([3]; Sprague-Dawley, rat, plasma, po, 22.2 g/kg, oral administration of B. striata extract 22.2 g/kg, rat plasma, n = 6): 6.44 ± 2.33 h; MRT last [3, 13]: 15.6 ± 3.63 h; MRT inf [3, 13]: 19.7 ± 6.25 h; AUC0–t [3, 14]: 458.12 ± 150.74 h∗μg/mL; AUC0–∞ [3, 14]: 498.36 ± 173.09 h∗μg/mL
